Experimental data reported in patent publication US20250034150A1, “BTK INHIBITORS” (BIOGEN MA INC., priority 2021, published 2025).

Assays:
[1] = biological target: T1, BTK (Homo sapiens, UniProt Q06187); test: In Vitro BTK Kinase Assay: Btk-PolyGAT-LS Assay; assay type: biochemical; settings: active BTK enzyme 0.25 nM, polyGAT 100 nM, 30 minutes, TRF readout; read-out: In Vitro BTK Kinase Assay IC50 Score
T1 construct: purchased Upstate 14-552
Procedure, shortened: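 Active BTK at 0.25 nM phosphorylated 100 nM fluorescein-polyGAT peptide at 10 μM ATP for 30 minutes. Buffer was Tris pH 7.5 with MgCl2, DTT, Triton X-100 and casein, and reactions were stopped with EDTA. Phospho-peptide was detected by Tb-PY20 antibody TR-FRET, and IC50 came from a four-parameter fit normalized to DMSO and EDTA controls.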

[2] = test system: CD69 expression on CD19+ B cells in human whole blood; test: In Vitro whole blood CD69 Assay; assay type: cell-based; settings: B-cell; human heparinized whole blood, anti-human IgD stimulation overnight, CD19+ B cells, flow cytometry; read-out: In Vitro HWB CD69 Assay IC50 Score
Method: Human heparinized venous blood from health donors was aliquoted into 96-well plate and “spiked” with serial dilutions of formula I compounds in DMSO or with DMSO without drug. The final concentration of DMSO in all wells was 0.1%. The plate was incubated at 37° C. for 30 min. Drug-containing samples were stimulated with 0.1 μg/mL mouse anti-human IgD-dextran (1A62) or 20 μg/mL polyclonal rabbit F(ab′)2 anti-human IgD. Phosphate-buffered saline (PBS) was added to the negative control unstimulated sample and the plates were incubated overnight (18 to 22 hours) at 37° C. Cells were stained with fluorochrome-conjugated anti-CD19 and anti-CD69 antibodies. Lyse/fix solution was used to remove red blood cells by hypotonic lysis and to fix the remaining cells, which were then analyzed by flow cytometry. CD19+ B cells were gated and analyzed for CD69 expression.

T1 sequence (Q06187 whole entry): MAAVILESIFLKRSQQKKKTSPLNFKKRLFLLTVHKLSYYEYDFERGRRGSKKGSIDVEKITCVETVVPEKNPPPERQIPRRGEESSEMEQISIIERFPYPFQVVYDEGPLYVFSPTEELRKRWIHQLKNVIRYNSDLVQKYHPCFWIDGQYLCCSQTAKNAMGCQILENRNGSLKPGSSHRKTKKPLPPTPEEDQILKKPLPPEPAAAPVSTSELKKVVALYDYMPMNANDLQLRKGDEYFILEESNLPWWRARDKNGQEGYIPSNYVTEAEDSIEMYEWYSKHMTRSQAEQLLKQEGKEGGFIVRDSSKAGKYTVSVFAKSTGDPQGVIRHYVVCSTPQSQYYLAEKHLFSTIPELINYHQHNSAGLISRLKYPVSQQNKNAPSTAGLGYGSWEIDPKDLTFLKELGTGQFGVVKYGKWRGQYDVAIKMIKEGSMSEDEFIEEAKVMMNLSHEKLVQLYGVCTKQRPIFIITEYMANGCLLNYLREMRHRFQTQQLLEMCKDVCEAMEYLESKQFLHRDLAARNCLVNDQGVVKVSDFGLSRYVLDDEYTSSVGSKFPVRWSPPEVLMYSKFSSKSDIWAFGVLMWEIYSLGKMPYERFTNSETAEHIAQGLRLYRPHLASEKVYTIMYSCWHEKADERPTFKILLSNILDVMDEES

Structure (SMILES) | IC50 [1] [nM] | IC50 [2] [nM]
CC(C)(C)n1nnc(C(=O)NCc2ccc(-c3nc(N4CCOCC4)cn4nccc34)cc2)n1 [Example 25, 2-(tert-butyl)-N-(4-(6-morpholinopyrazolo[1,5-a]pyrazin-4-yl)benzyl)-2H-tetrazole-5-carboxamide] | 10 to 1000 | 1000 to 10000
Cc1cc(-c2nc(-c3cnn(C)c3)cn3nccc23)ccc1CN1CCN(CC(C)C)CC1=O [Example 30, 4-isobutyl-1-(2-methyl-4-(6-(1-methyl-1H-pyrazol-4-yl)pyrazolo[1,5-a]pyrazin-4-yl)benzyl)piperazin-2-one] | 1 to 10 | 1000 to 10000
Cc1cc(-c2nc(-c3cnn(C)c3)cn3nccc23)ccc1CN1CCN(CC(C)(C)C)CC1=O [Example 31, 1-(2-methyl-4-(6-(1-methyl-1H-pyrazol-4-yl)pyrazolo[1,5-a]pyrazin-4-yl)benzyl)-4-neopentylpiperazin-2-one] | 1 to 10 | 1000 to 10000
Cn1cc(-c2cn3nccc3c(-c3ccc(CN4CCN(CC(C)(C)C)CC4=O)cc3)n2)cn1 [Example 33, 1-(4-(6-(1-methyl-1H-pyrazol-4-yl)pyrazolo[1,5-a]pyrazin-4-yl)benzyl)-4-neopentylpiperazin-2-one] | 1 to 10 | 1000 to 10000
CC(C)CN1CCN(Cc2ccc(-c3nc(-c4cnn(C)c4)cn4nccc34)cc2F)C(=O)C1 [Example 34, 1-(2-fluoro-4-(6-(1-methyl-1H-pyrazol-4-yl)pyrazolo[1,5-a]pyrazin-4-yl)benzyl)-4-isobutylpiperazin-2-one] | 1 to 10 | 1000 to 10000
Cn1cc(-c2cn3nccc3c(-c3ccc(CN4CCN(CC(C)(C)C)CC4=O)c(F)c3)n2)cn1 [Example 35, 1-(2-fluoro-4-(6-(1-methyl-1H-pyrazol-4-yl)pyrazolo[1,5-a]pyrazin-4-yl)benzyl)-4-neopentylpiperazin-2-one] | 1 to 10 | 1000 to 10000
Cc1cc(-c2nc(-c3cnn(C)c3)cn3nccc23)ccc1CN1CCN(CC(C)C)C(C)C1=O (stereo not drawn) [Example 36, 4-isobutyl-3-methyl-1-(2-methyl-4-(6-(1-methyl-1H-pyrazol-4-yl)pyrazolo[1,5-a]pyrazin-4-yl)benzyl)piperazin-2-one] | 1 to 10 | 1000 to 10000
Cc1cc(-c2nc(-c3cnn(C)c3)cc3nccn23)ccc1CN1Cc2nc(C(C)(C)C)sc2C1=O [Example 38, 2-(tert-butyl)-5-(2-methyl-4-(7-(1-methyl-1H-pyrazol-4-yl)imidazo[1,2-c]pyrimidin-5-yl)benzyl)-4,5-dihydro-6H-pyrrolo[3,4-d]thiazol-6-one] | < 1 | 1000 to 10000
Cn1cc(-c2cn3nccc3c(-c3ccc4c(c3)CN(C3COC3)CC[C@H]4NC(=O)c3cn(C(C)(C)C)nn3)n2)cn1 [Example 39, 1-tert-butyl-N-[(5R)-8-[6-(1-methylpyrazol-4-yl)pyrazolo[1,5-a]pyrazin-4-yl]-2-(oxetan-3-yl)-1,3,4,5-tetrahydro-2-benzazepin-5-yl]triazole-4-carboxamide] | < 1 | < 1000
Cn1cc(-c2cn3nccc3c(-c3ccc4c(c3)CN(CC(F)(F)F)CC[C@H]4NC(=O)c3cn(C(C)(C)C)nn3)n2)cn1 [Example 40, (R)-1-(tert-butyl)-N-(8-(6-(1-methyl-1H-pyrazol-4-yl)pyrazolo[1,5-a]pyrazin-4-yl)-2-(2,2,2-trifluoroethyl)-2,3,4,5-tetrahydro-1H-benzo[c]azepin-5-yl)-1H-1,2,3-triazole-4-carboxamide] | 1 to 10 | < 1000
Cn1cc(-c2cn3nccc3c(N3CCC(C)(CNC(=O)c4noc(C(C)(C)C)n4)CC3)n2)cn1 [Example 41, 5-(tert-butyl)-N-((4-methyl-1-(6-(1-methyl-1H-pyrazol-4-yl)pyrazolo[1,5-a]pyrazin-4-yl)piperidin-4-yl)methyl)-1,2,4-oxadiazole-3-carboxamide] | 1 to 10 | 1000 to 10000
Cn1cc(-c2cn3nccc3c(N3CCC(C)(CNC(=O)c4nnn(C(C)(C)C)n4)CC3)n2)cn1 [Example 43, 2-(tert-butyl)-N-((4-methyl-1-(6-(1-methyl-1H-pyrazol-4-yl)pyrazolo[1,5-a]pyrazin-4-yl)piperidin-4-yl)methyl)-2H-tetrazole-5-carboxamide] | 10 to 1000 | 1000 to 10000
Cn1cc(-c2cn3nccc3c(N3CCC(C)(CNC(=O)c4cn(C(C)(C)C)nn4)CC3)n2)cn1 [Example 44, 1-(tert-butyl)-N-((4-methyl-1-(6-(1-methyl-1H-pyrazol-4-yl)pyrazolo[1,5-a]pyrazin-4-yl)piperidin-4-yl)methyl)-1H-1,2,3-triazole-4-carboxamide] | 10 to 1000 | 1000 to 10000
Cn1cc(-c2cn3nccc3c(N3CCC(C)(CNC(=O)c4cnc(C(C)(C)C)o4)CC3)n2)cn1 [Example 45, 2-(tert-butyl)-N-((4-methyl-1-(6-(1-methyl-1H-pyrazol-4-yl)pyrazolo[1,5-a]pyrazin-4-yl)piperidin-4-yl)methyl)oxazole-5-carboxamide] | 10 to 1000 | 1000 to 10000
Cn1cc(-c2cn3nccc3c(N3CCC(C)(CNC(=O)c4noc(C5(C)CC5)n4)CC3)n2)cn1 [Example 46, N-((4-methyl-1-(6-(1-methyl-1H-pyrazol-4-yl)pyrazolo[1,5-a]pyrazin-4-yl)piperidin-4-yl)methyl)-5-(1-methylcyclopropyl)-1,2,4-oxadiazole-3-carboxamide] | 10 to 1000 | 1000 to 10000
Cn1cc(-c2cn3nccc3c(N3CCC(C)(CNC(=O)c4nc(C(C)(C)C)no4)CC3)n2)cn1 [Example 47, 3-(tert-butyl)-N-((4-methyl-1-(6-(1-methyl-1H-pyrazol-4-yl)pyrazolo[1,5-a]pyrazin-4-yl)piperidin-4-yl)methyl)-1,2,4-oxadiazole-5-carboxamide] | 1 to 10 | 1000 to 10000
Cn1cc(-c2cc3nccn3c(-c3ccc(CNC(=O)c4ccn(C(C)(C)C)n4)cc3)n2)cn1 [Example 56, 1-(tert-butyl)-N-(4-(7-(1-methyl-1H-pyrazol-4-yl)imidazo[1,2-c]pyrimidin-5-yl)benzyl)-1H-pyrazole-3-carboxamide] | 10 to 1000 | 1000 to 10000
Cn1cc(-c2cc3nccn3c(-c3ccc(CNC(=O)c4cnn(C(C)(C)C)c4)cc3)n2)cn1 [Example 57, 1-(tert-butyl)-N-(4-(7-(1-methyl-1H-pyrazol-4-yl)imidazo[1,2-c]pyrimidin-5-yl)benzyl)-1H-pyrazole-4-carboxamide] | 1 to 10 | 1000 to 10000
Cn1cc(-c2cc3nccn3c(-c3ccc(CNC(=O)c4nnn(C(C)(C)C)n4)cc3)n2)cn1 [Example 58, 2-(tert-butyl)-N-(4-(7-(1-methyl-1H-pyrazol-4-yl)imidazo[1,2-c]pyrimidin-5-yl)benzyl)-2H-tetrazole-5-carboxamide] | < 1 | < 1000
Cn1cc(-c2cc3nccn3c(-c3ccc(CNC(=O)c4cn(C(C)(C)C)nn4)cc3)n2)cn1 [Example 59, 1-(tert-butyl)-N-(4-(7-(1-methyl-1H-pyrazol-4-yl)imidazo[1,2-c]pyrimidin-5-yl)benzyl)-1H-1,2,3-triazole-4-carboxamide] | 1 to 10 | < 1000
Cn1cc(-c2cc3nccn3c(-c3ccc(CNC(=O)c4noc(C5(C)CC5)n4)cc3)n2)cn1 [Example 60, N-(4-(7-(1-methyl-1H-pyrazol-4-yl)imidazo[1,2-c]pyrimidin-5-yl)benzyl)-5-(1-methylcyclopropyl)-1,2,4-oxadiazole-3-carboxamide] | 1 to 10 | 1000 to 10000
